Assay results from the supplement of paper PMC10733146.

How the values were obtained:
Experiment in all cases: viability relative to DMSO control (fraction); higher = less drug effect (more viable cells)
Conditions in all cases: 48 h
[1] = compound: O=C(NCC1(c2nc(-c3ccccc3)cs2)CCOCC1)c1cccc(-c2noc(C(F)(F)F)n2)c1 [TMP269]
Summary of the method: (§1)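 In 384-well plates with compounds pre-plated at five concentrations (one well per concentration), primary mononuclear tumour cells were plated at 4 × 10^4 cells per well. The cells came from blood or bone marrow by Ficoll isolation or from processed lymph node, and were used fresh or cryopreserved. Culture ran for 48 h at 37 °C and 5% CO2 in RPMI-1640 containing penicillin/streptomycin, L-glutamine and human serum. Viability was read as CellTiter-Glo luminescence, normalised to the median of 16 inner DMSO wells.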

[2] = compound: COC1=CC(c2cc3ccccc3[nH]2)=N/C1=C\c1[nH]c(C)cc1C [Obatoclax mesylate]
Summary of the method: as §1

[3] = compound: CC(C)C[C@H](NC(=O)[C@H](Cc1ccccc1)NC(=O)c1cnccn1)B(O)O [Bortezomib]
Summary of the method: as §1

[4] = compound: Cc1cc(Nc2cc(N3CCN(C)CC3)nc(Sc3ccc(NC(=O)C4CC4)cc3)n2)n[nH]1 [Tozasertib]
Summary of the method: as §1

[5] = compound: COc1nc(N)nc2c1ncn2[C@@H]1O[C@H](CO)[C@@H](O)[C@@H]1O [Nelarabine]
Summary of the method: as §1

[6] = compound: Nc1nc2n[nH]nc2c(=O)[nH]1 [8-Azaguanin]
Summary of the method: as §1

[7] = compound: CC(C)N(C[C@H]1O[C@@H](n2cnc3c(N)ncnc32)[C@H](O)[C@@H]1O)[C@H]1C[C@@H](CCc2nc3cc(C(C)(C)C)ccc3[nH]2)C1 [EPZ-5676]
Summary of the method: as §1

[8] = compound: CC(C)(C)OC(=O)Nc1ccc(-c2cc(C(=O)NCCCCCCC(=O)NO)no2)cc1
Summary of the method: as §1

[9] = compound: C#CCC(Cc1cnc2nc(N)nc(N)c2n1)c1ccc(C(=O)N[C@@H](CCC(=O)O)C(=O)O)cc1 [Pralatrexate]
Summary of the method: as §1

[10] = compound: CC(C)(C)c1cc(NC(=O)Nc2ccc(-c3cn4c(n3)sc3cc(OCCN5CCOCC5)ccc34)cc2)no1 [Quizartinib]
Summary of the method: as §1

[11] = compound: CN(C)C(=O)c1cc2cnc(Nc3ccc(N4CCNCC4)cn3)nc2n1C1CCCC1 [Ribociclib]
Summary of the method: as §1

[12] = compound: CC#CC(=O)N1CC[C@@H](n2c(=O)n(-c3ccc(Oc4ccccc4)cc3)c3c(N)ncnc32)C1 [ONO-4059]
Summary of the method: as §1

[13] = compound: O=C(CCCCCCC(=O)Nc1ccccc1)NO [Vorinostat]
Summary of the method: as §1

[14] = compound: CC[C@H](NC(=O)[C@H](C)NC)C(=O)N1C[C@@H](O)C[C@H]1Cc1c(-c2[nH]c3cc(F)ccc3c2C[C@@H]2C[C@H](O)CN2C(=O)[C@H](CC)NC(=O)[C@H](C)NC)[nH]c2cc(F)ccc12 [Birinapant]
Summary of the method: as §1

[15] = compound: CC[C@@H]1C(=O)N(C)c2cnc(Nc3ccc(C(=O)N[C@H]4CC[C@H](N5CCN(CC6CC6)CC5)CC4)cc3OC)nc2N1C(C)C [BI6727]
Summary of the method: as §1

primary CLL patient cells (S043)
viability ([1]; 0.024 µM): 0.878
viability ([1]; 0.12 µM): 0.925
viability ([1]; 0.6 µM): 0.908
viability ([1]; 3 µM): 0.903
viability ([1]; 15 µM): 0.85
viability ([2]; 0.024 µM): 1.01
viability ([2]; 0.12 µM): 0.983
viability ([2]; 0.6 µM): 0.708
viability ([2]; 3 µM): 0.54
viability ([2]; 15 µM): 0.255
viability ([3]; 0.008 µM): 1.25
viability ([3]; 0.04 µM): 0.894
viability ([3]; 0.2 µM): 1.27
viability ([3]; 1 µM): 0.899
viability ([3]; 5 µM): 1.23
viability ([4]; 0.024 µM): 0.997
viability ([4]; 0.12 µM): 0.94
viability ([4]; 0.6 µM): 0.981
viability ([4]; 3 µM): 0.9
viability ([4]; 15 µM): 0.642
viability ([5]; 0.024 µM): 1.02
viability ([5]; 0.12 µM): 1.09
viability ([5]; 0.6 µM): 0.98
viability ([5]; 3 µM): 1.01
viability ([5]; 15 µM): 0.903
viability ([6]; 0.032 µM): 1.14
viability ([6]; 0.16 µM): 1.14
viability ([6]; 0.8 µM): 0.971
viability ([6]; 4 µM): 0.722
viability ([6]; 20 µM): 0.49
viability ([7]; 0.0032 µM): 1.06
viability ([7]; 0.016 µM): 1.28
viability ([7]; 0.08 µM): 1.13
viability ([7]; 0.4 µM): 1.02
viability ([7]; 2 µM): 0.951
viability ([8]; 0.024 µM): 0.9
viability ([8]; 0.12 µM): 0.886
viability ([8]; 0.6 µM): 0.755
viability ([8]; 3 µM): 0.396
viability ([8]; 15 µM): 0.0668
viability ([9]; 0.024 µM): 0.925
viability ([9]; 0.12 µM): 0.892
viability ([9]; 0.6 µM): 0.876
viability ([9]; 3 µM): 0.891
viability ([9]; 15 µM): 0.836
viability ([10]; 0.016 µM): 0.982
viability ([10]; 0.08 µM): 1.07
viability ([10]; 0.4 µM): 1.13
viability ([10]; 2 µM): 1.11
viability ([10]; 10 µM): 1.14
viability ([11]; 0.024 µM): 0.904
viability ([11]; 0.12 µM): 1.1
viability ([11]; 0.6 µM): 0.995
viability ([11]; 3 µM): 0.933
viability ([11]; 15 µM): 0.771
viability ([12]; 0.0016 µM): 0.789
viability ([12]; 0.008 µM): 0.742
viability ([12]; 0.04 µM): 0.688
viability ([12]; 0.2 µM): 0.72
viability ([12]; 1 µM): 0.723
viability ([13]; 0.016 µM): 1.07
viability ([13]; 0.08 µM): 0.958
viability ([13]; 0.4 µM): 0.905
viability ([13]; 2 µM): 0.62
viability ([13]; 10 µM): 0.116
viability ([14]; 0.0008 µM): 0.984
viability ([14]; 0.004 µM): 0.947
viability ([14]; 0.02 µM): 0.965
viability ([14]; 0.1 µM): 1.09
viability ([14]; 0.5 µM): 0.992
viability ([15]; 0.024 µM): 0.861
viability ([15]; 0.12 µM): 0.872
viability ([15]; 0.6 µM): 0.796
viability ([15]; 3 µM): 0.742
viability ([15]; 15 µM): 0.51

primary DLBCL patient cells (S082)
viability ([1]; 0.024 µM): 0.909
viability ([1]; 0.12 µM): 0.885
viability ([1]; 0.6 µM): 0.891
viability ([1]; 3 µM): 0.819
viability ([1]; 15 µM): 0.873
viability ([2]; 0.024 µM): 0.989
viability ([2]; 0.12 µM): 1.34
viability ([2]; 0.6 µM): 1.58
viability ([2]; 3 µM): 1.41
viability ([2]; 15 µM): 0.681
viability ([3]; 0.008 µM): 0.846
viability ([3]; 0.04 µM): 0.987
viability ([3]; 0.2 µM): 0.842
viability ([3]; 1 µM): 0.899
viability ([3]; 5 µM): 0.882
viability ([4]; 0.024 µM): 0.94
viability ([4]; 0.12 µM): 0.892
viability ([4]; 0.6 µM): 0.821
viability ([4]; 3 µM): 0.618
viability ([4]; 15 µM): 0.364
viability ([5]; 0.024 µM): 1.06
viability ([5]; 0.12 µM): 1.05
viability ([5]; 0.6 µM): 0.961
viability ([5]; 3 µM): 1
viability ([5]; 15 µM): 0.76
viability ([6]; 0.032 µM): 1.01
viability ([6]; 0.16 µM): 1.05
viability ([6]; 0.8 µM): 0.976
viability ([6]; 4 µM): 0.918
viability ([6]; 20 µM): 0.531
viability ([7]; 0.0032 µM): 0.925
viability ([7]; 0.016 µM): 1.1
viability ([7]; 0.08 µM): 0.88
viability ([7]; 0.4 µM): 0.953
viability ([7]; 2 µM): 1.1
viability ([8]; 0.024 µM): 0.786
viability ([8]; 0.12 µM): 0.499
viability ([8]; 0.6 µM): 0.13
viability ([8]; 3 µM): 0.0294
viability ([8]; 15 µM): 0.0162
viability ([9]; 0.024 µM): 1.02
viability ([9]; 0.12 µM): 1.15
viability ([9]; 0.6 µM): 0.992
viability ([9]; 3 µM): 1.08
viability ([9]; 15 µM): 1.05
viability ([10]; 0.016 µM): 1.06
viability ([10]; 0.08 µM): 1.13
viability ([10]; 0.4 µM): 1.01
viability ([10]; 2 µM): 1.07
viability ([10]; 10 µM): 1.15
viability ([11]; 0.024 µM): 0.925
viability ([11]; 0.12 µM): 0.946
viability ([11]; 0.6 µM): 0.935
viability ([11]; 3 µM): 0.938
viability ([11]; 15 µM): 1.02
viability ([12]; 0.0016 µM): 0.786
viability ([12]; 0.008 µM): 0.587
viability ([12]; 0.04 µM): 0.483
viability ([12]; 0.2 µM): 0.413
viability ([12]; 1 µM): 0.391
viability ([13]; 0.016 µM): 1.01
viability ([13]; 0.08 µM): 0.914
viability ([13]; 0.4 µM): 0.636
viability ([13]; 2 µM): 0.0663
viability ([13]; 10 µM): 0.0248
viability ([14]; 0.0008 µM): 0.923
viability ([14]; 0.004 µM): 1.04
viability ([14]; 0.02 µM): 1.12
viability ([14]; 0.1 µM): 1.09
viability ([14]; 0.5 µM): 1.06
viability ([15]; 0.024 µM): 0.916
viability ([15]; 0.12 µM): 0.857
viability ([15]; 0.6 µM): 0.623
viability ([15]; 3 µM): 0.351
viability ([15]; 15 µM): 0.256

primary FL patient cells (S022)
viability ([1]; 0.024 µM): 1.22
viability ([1]; 0.12 µM): 0.977
viability ([1]; 0.6 µM): 1.2
viability ([1]; 3 µM): 0.958
viability ([1]; 15 µM): 0.915
viability ([2]; 0.024 µM): 1.04
viability ([2]; 0.12 µM): 0.971
viability ([2]; 0.6 µM): 0.71
viability ([2]; 3 µM): 0.486
viability ([2]; 15 µM): 0.109
viability ([3]; 0.008 µM): 1
viability ([3]; 0.04 µM): 1.05
viability ([3]; 0.2 µM): 0.957
viability ([3]; 1 µM): 0.931
viability ([3]; 5 µM): 0.885
viability ([4]; 0.024 µM): 0.996
viability ([4]; 0.12 µM): 0.882
viability ([4]; 0.6 µM): 0.949
viability ([4]; 3 µM): 0.807
viability ([4]; 15 µM): 0.814
viability ([5]; 0.024 µM): 1.03
viability ([5]; 0.12 µM): 1.1
viability ([5]; 0.6 µM): 0.93
viability ([5]; 3 µM): 0.902
viability ([5]; 15 µM): 0.811
viability ([6]; 0.032 µM): 0.987
viability ([6]; 0.16 µM): 1.01
viability ([6]; 0.8 µM): 0.843
viability ([6]; 4 µM): 0.582
viability ([6]; 20 µM): 0.363
viability ([7]; 0.0032 µM): 0.873
viability ([7]; 0.016 µM): 1
viability ([7]; 0.08 µM): 0.884
viability ([7]; 0.4 µM): 0.856
viability ([7]; 2 µM): 0.96
viability ([8]; 0.024 µM): 0.921
viability ([8]; 0.12 µM): 0.849
viability ([8]; 0.6 µM): 0.939
viability ([8]; 3 µM): 0.84
viability ([8]; 15 µM): 0.204
viability ([9]; 0.024 µM): 1
viability ([9]; 0.12 µM): 0.996
viability ([9]; 0.6 µM): 1
viability ([9]; 3 µM): 1.04
viability ([9]; 15 µM): 1.02
viability ([10]; 0.016 µM): 1.01
viability ([10]; 0.08 µM): 1.04
viability ([10]; 0.4 µM): 1.01
viability ([10]; 2 µM): 1.21
viability ([10]; 10 µM): 0.998
viability ([11]; 0.024 µM): 1.01
viability ([11]; 0.12 µM): 1.01
viability ([11]; 0.6 µM): 1.02
viability ([11]; 3 µM): 0.941
viability ([11]; 15 µM): 0.737
viability ([12]; 0.0016 µM): 1.05
viability ([12]; 0.008 µM): 1.02
viability ([12]; 0.04 µM): 1.06
viability ([12]; 0.2 µM): 0.985
viability ([12]; 1 µM): 1.13
viability ([13]; 0.016 µM): 0.992
viability ([13]; 0.08 µM): 0.932
viability ([13]; 0.4 µM): 0.874
viability ([13]; 2 µM): 0.795
viability ([13]; 10 µM): 0.26
viability ([14]; 0.0008 µM): 0.862
viability ([14]; 0.004 µM): 0.874
viability ([14]; 0.02 µM): 0.965
viability ([14]; 0.1 µM): 0.884
viability ([14]; 0.5 µM): 0.903
viability ([15]; 0.024 µM): 1.04
viability ([15]; 0.12 µM): 0.901
viability ([15]; 0.6 µM): 0.959
viability ([15]; 3 µM): 0.785
viability ([15]; 15 µM): 0.178
